Assay results reported in ChEMBL document CHEMBL2311254, “Tuning the preference of thiodigalactoside- and lactosamine-based ligands to galectin-3 over galectin-1” (J Med Chem, 2013).

How the values were obtained:
[1] = species: Homo sapiens; test: Selectivity ratio of Kd for galectin-1 (unknown origin) to Kd for galectin-3 (unknown origin)
[2] = biological target: T1, Galectin-1 (Homo sapiens, UniProt P09382); test: Ratio of LacNAc-beta-OMe Kd to compound Kd for galectin-1 (unknown origin)
[3] = biological target: T2, Galectin-3 (Homo sapiens, UniProt P17931); test: Ratio of LacNAc-beta-OMe Kd to compound Kd for galectin-3 (unknown origin)
T2 sequence (P17931 whole entry): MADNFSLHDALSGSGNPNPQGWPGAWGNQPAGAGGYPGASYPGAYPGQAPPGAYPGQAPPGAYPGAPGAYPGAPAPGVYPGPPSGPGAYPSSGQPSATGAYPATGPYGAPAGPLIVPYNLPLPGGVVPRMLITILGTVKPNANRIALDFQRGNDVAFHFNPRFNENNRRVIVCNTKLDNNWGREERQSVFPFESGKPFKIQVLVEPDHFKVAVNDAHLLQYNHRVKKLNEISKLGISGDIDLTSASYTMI

[4] = biological target: T2, Galectin-3; test: Binding affinity to galectin-3 (unknown origin) by fluorescence polarization assay
[5] = biological target: T1, Galectin-1; test: Binding affinity to galectin-1 (unknown origin) by fluorescence polarization assay
[6] = biological target: T2, Galectin-3; test: Binding affinity to galectin-3 (unknown origin)
[7] = biological target: T2, Galectin-3; test: Ratio of Thiodigalactoside Kd to compound Kd for galectin-3 (unknown origin)
[8] = biological target: T1, Galectin-1; test: Ratio of Thiodigalactoside Kd to compound Kd for galectin-1 (unknown origin)

T1 sequence (P09382 whole entry): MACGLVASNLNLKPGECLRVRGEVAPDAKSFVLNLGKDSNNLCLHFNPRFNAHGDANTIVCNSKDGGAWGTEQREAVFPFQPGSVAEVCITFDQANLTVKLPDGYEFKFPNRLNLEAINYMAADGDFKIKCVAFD

SMILES | Selectivity ratio [1] | Ratio [2] | Ratio [3] | Kd [4] [nM] | Kd [5] [µM] | Activity [6] [µM] | Ratio [7] | Ratio [8]
[N-]=[N+]=NCCCO[C@@H]1O[C@H](CO)[C@@H](O[C@@H]2O[C@H](CO)[C@H](O)[C@H](OCc3ccc(Oc4ccccc4)cc3)[C@H]2O)[C@H](O)[C@H]1NC(=O)c1ccccc1 | 22 | 0.4 | 8.5 | 8100 | 180 | – | – | –
[N-]=[N+]=NCCCO[C@@H]1O[C@H](CO)[C@@H](O[C@@H]2O[C@H](CO)[C@H](O)[C@H](OCc3ccc(Oc4ccccc4)cc3)[C@H]2O)[C@H](O)[C@H]1N1C(=O)c2ccccc2C1=O | 230 | 0.3 | 58 | 1200 | 280 | – | – | –
CO[C@@H]1O[C@H](CO)[C@@H](O[C@@H]2O[C@H](CO)[C@H](O)[C@H](O)[C@H]2O)[C@H](O)[C@H]1NC(C)=O | 1 | – | – | 69000 | – | – | – | –
OC[C@H]1O[C@@H](S[C@@H]2O[C@H](CO)[C@H](O)[C@H](O)[C@H]2O)[C@H](O)[C@@H](O)[C@H]1O | – | – | – | – | – | 43 | – | –
OC[C@H]1O[C@@H](S[C@@H]2O[C@H](CO)[C@H](O)[C@H](n3cc(-c4cccc(O)c4)nn3)[C@H]2O)[C@H](O)[C@@H](n2cc(-c3cccc(O)c3)nn2)[C@H]1O | 0.6 | – | – | 22 | 0.013 | – | 1950 | 1850
OC[C@H]1O[C@@H](S[C@@H]2O[C@H](CO)[C@H](O)[C@H](n3cc(-c4ccccc4)nn3)[C@H]2O)[C@H](O)[C@@H](n2cc(-c3ccccc3)nn2)[C@H]1O | 1 | – | – | 44 | 0.049 | – | 980 | 490
OC[C@H]1O[C@@H](S[C@@H]2O[C@H](CO)[C@H](O)[C@H](n3cc(-c4ccc(Oc5ccccc5)cc4)nn3)[C@H]2O)[C@H](O)[C@@H](n2cc(-c3ccc(Oc4ccccc4)cc3)nn2)[C@H]1O | 230 | – | – | 360 | 84 | – | 120 | 0.3
[N-]=[N+]=NCCCO[C@@H]1O[C@H](CO)[C@@H](O[C@@H]2O[C@H](CO)[C@H](O)[C@H](n3cc(-c4ccc(Oc5ccccc5)cc4)nn3)[C@H]2O)[C@H](O)[C@H]1N1C(=O)c2ccccc2C1=O | 13 | 2.5 | 31 | 2200 | 28 | – | – | –
[N-]=[N+]=NCCCO[C@@H]1O[C@H](CO)[C@@H](O[C@@H]2O[C@H](CO)[C@H](O)[C@H](n3cc(-c4ccc(Oc5ccccc5)cc4)nn3)[C@H]2O)[C@H](O)[C@H]1NC(=O)c1ccccc1 | 2.4 | 10 | 25 | 2800 | 6.7 | – | – | –
